In ChEMBL document CHEMBL4308852, “GNE-371, a Potent and Selective Chemical Probe for the Second Bromodomains of Human Transcription-Initiation-Factor TFIID Subunit 1 and Transcription-Initiation-Factor TFIID Subunit 1-like” (J Med Chem, 2018):
Converted amounts (≈) assume the structure as drawn. The source made the active and inactive calls. No cut-off for these calls is given here.

How the values were obtained:
[1] = molecular target: T1, Transcription initiation factor TFIID subunit 1 (Homo sapiens, UniProt P21675); test: Inhibition of recombinant His-tagged TAF1 bromodomain 2 (unknown origin) after 10 mins by TR-FRET assay
T1 sequence (P21675 whole entry): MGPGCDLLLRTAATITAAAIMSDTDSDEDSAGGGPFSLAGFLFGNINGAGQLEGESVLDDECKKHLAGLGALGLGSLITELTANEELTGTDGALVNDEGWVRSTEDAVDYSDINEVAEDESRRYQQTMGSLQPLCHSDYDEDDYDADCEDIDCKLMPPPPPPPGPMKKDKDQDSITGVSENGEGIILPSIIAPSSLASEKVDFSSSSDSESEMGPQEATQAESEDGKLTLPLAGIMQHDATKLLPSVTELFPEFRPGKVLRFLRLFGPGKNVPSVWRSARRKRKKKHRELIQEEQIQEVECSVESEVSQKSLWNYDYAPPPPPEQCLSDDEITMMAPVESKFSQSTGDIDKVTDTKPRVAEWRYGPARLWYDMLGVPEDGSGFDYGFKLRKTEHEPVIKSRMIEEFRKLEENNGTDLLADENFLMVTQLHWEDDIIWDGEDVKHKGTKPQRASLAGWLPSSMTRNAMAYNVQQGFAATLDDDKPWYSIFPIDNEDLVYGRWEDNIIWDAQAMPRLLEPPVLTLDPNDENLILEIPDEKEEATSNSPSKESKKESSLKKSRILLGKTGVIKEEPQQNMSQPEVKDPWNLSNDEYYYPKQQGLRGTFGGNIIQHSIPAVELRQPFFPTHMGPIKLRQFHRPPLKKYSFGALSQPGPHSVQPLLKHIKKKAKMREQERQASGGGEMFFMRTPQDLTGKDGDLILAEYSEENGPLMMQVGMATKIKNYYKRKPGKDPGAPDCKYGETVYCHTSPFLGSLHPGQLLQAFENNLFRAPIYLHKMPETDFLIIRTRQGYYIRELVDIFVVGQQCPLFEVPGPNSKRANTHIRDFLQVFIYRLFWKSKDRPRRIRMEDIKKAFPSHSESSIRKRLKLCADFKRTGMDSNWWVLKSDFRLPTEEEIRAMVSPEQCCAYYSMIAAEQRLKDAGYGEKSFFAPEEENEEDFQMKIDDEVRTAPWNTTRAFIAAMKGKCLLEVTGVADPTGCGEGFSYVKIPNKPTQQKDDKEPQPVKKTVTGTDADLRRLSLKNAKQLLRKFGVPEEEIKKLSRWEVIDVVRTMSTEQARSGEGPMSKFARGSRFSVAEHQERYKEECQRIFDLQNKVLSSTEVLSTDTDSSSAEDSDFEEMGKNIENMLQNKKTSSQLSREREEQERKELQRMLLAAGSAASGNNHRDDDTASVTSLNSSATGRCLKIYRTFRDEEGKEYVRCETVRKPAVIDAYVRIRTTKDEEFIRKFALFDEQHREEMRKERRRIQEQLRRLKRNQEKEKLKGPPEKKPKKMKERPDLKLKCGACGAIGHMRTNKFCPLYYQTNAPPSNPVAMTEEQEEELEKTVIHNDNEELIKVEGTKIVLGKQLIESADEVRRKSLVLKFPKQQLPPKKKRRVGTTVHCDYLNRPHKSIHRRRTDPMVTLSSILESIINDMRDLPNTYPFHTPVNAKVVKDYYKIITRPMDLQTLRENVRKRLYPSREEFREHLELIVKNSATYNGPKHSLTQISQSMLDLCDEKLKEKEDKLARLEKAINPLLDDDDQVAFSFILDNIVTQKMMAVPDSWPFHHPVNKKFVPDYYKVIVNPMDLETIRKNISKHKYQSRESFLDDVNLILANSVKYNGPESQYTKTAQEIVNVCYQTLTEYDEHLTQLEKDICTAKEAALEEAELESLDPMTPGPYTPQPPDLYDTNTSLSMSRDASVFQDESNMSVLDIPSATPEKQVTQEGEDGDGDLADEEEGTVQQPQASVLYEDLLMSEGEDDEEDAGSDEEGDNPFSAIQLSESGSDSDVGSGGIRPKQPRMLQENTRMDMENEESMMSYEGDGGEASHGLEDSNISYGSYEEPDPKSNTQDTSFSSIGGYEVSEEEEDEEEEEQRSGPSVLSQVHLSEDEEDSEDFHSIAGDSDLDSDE

[2] = molecular target: T1, Transcription initiation factor TFIID subunit 1; test: Inhibition of recombinant His-tagged TAF1 bromodomain 1 (unknown origin) after 10 mins by TR-FRET assay
[3] = molecular target: T2, Bromodomain-containing protein 4 (Homo sapiens, UniProt O60885); test: Inhibition of recombinant His-tagged BRD4 bromodomain 1 (unknown origin) after 10 mins by TR-FRET assay
[4] = molecular target: T2, Bromodomain-containing protein 4; test: Inhibition of recombinant His-tagged BRD4 bromodomain 2 (unknown origin) after 10 mins by TR-FRET assay
[5] = molecular target: T3, Chromatin remodeling regulator CECR2 (Homo sapiens, UniProt Q9BXF3); test: Inhibition of recombinant His-tagged CECR2 (unknown origin) after 10 mins by TR-FRET assay
T3 sequence (Q9BXF3 whole entry): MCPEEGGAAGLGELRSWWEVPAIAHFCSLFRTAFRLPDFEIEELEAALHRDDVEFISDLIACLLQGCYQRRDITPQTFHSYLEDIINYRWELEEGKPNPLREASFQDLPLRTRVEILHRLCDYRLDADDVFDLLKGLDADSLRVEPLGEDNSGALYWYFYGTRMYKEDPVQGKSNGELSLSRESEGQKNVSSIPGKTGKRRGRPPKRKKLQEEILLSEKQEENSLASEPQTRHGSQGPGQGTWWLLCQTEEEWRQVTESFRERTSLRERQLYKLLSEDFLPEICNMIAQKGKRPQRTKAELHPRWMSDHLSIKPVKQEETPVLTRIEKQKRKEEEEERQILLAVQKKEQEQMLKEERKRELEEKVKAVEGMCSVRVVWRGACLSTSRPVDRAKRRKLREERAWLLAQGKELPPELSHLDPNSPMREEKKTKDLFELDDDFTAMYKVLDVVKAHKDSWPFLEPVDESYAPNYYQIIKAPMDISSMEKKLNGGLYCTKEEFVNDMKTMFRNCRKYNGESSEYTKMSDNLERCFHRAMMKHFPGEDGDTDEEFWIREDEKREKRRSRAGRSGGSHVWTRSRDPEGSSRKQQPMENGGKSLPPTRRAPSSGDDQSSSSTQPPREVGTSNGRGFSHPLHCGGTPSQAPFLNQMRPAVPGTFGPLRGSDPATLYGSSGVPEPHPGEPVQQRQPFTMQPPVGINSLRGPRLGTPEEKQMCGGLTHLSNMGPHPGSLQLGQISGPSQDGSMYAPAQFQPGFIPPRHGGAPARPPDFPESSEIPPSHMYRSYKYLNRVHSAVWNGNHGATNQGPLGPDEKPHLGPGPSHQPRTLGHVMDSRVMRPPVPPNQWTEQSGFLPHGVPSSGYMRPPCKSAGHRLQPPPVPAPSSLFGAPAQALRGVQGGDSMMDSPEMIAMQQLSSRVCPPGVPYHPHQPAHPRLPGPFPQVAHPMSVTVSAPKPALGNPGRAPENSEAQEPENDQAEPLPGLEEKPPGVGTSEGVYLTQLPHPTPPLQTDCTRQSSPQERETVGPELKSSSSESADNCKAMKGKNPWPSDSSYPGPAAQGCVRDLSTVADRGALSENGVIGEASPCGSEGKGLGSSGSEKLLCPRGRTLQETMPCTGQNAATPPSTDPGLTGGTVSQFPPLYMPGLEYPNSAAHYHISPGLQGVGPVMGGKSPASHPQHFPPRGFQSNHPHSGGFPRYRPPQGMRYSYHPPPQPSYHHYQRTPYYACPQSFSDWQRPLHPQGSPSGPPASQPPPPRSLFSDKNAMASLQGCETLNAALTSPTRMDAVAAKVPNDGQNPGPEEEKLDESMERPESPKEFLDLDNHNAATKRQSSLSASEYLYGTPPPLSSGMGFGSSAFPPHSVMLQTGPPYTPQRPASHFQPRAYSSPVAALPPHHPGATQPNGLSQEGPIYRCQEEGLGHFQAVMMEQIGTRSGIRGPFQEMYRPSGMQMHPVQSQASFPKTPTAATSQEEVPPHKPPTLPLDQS

CREB-binding protein = CREB-binding protein (Homo sapiens, UniProt Q92793); test: Inhibition of recombinant His-tagged CBP (unknown origin) after 10 mins by TR-FRET assay
[6] = molecular target: T2, Bromodomain-containing protein 4; test: Binding affinity to recombinant human full length DNA-tagged BRD4 short isoform expressed in bacterial expression system by bromoscan assay
[7] = molecular target: Transcription initiation factor TFIID subunit 1-like (Homo sapiens, UniProt Q8IZX4); test: Binding affinity to recombinant human full length DNA-tagged TAF1L bromodomain 2 (1523 to 1654 residues) expressed in bacterial expression system by bromoscan assay
NCI-H23 = test: Synergistic cytotoxicity against human H23 cells assessed as reduction in cell viability at 100 nM after 48 hrs in presence of BRD4 inhibitor JQ1 by celltiter-glo assay; format: functional, cell-based
[8] = Kinetic solubility of the compound; format: physicochemical; conditions: read-out: Kinetic_solubility
[9] = molecular target: T3, Chromatin remodeling regulator CECR2
[10] = molecular target: T2, Bromodomain-containing protein 4; conditions: 20 uM

Row | SMILES | IC50 [1] [µM] | IC50 [2] [µM] | IC50 [3] [µM] | IC50 [4] [µM] | IC50 [5] [µM] | also measured
1 | C=CCCn1cc(-c2cc(C(=O)N3CCOCC3)c3c(c2)ncn3CC)c2cc[nH]c2c1=O | 0.016 | > 20 | 2 | 1 | 2.6 | 
2 | C=CCCn1cc(-c2cccc(C(=O)N3CCN(CCO)CC3)c2)c2cc[nH]c2c1=O | 0.083 | 14 | 3.2 | 5 | 1.1 | IC50 (CREB-binding protein): > 20 µM
3 | C=CCCn1cc(-c2cc(OC(F)F)cc(C(=O)N3CCOCC3)c2)c2cc[nH]c2c1=O |  |  | 0.6 | 9 |  | 
4 | C=CCCn1cc(-c2cnc(OC)c(C(=O)N3CCOCC3)c2)c2cc[nH]c2c1=O | 0.007 | 6.9 | 8.6 | 9.6 | 1 | 
5 | C=CCCn1cc(-c2cccc(C(=O)N(C)C3CCCCC3)c2)c2cc[nH]c2c1=O | 0.067 | 13 | 0.75 | 2.4 | 4 | IC50 (CREB-binding protein): > 20 µM
6 | C=CCCn1cc(-c2cc(F)c(F)c(C(=O)N3CCOCC3)c2)c2cc[nH]c2c1=O |  |  | 7.9 | 17 |  | 
7 | C=CCCn1cc(-c2cnc(OCC)c(C(=O)N3CCOCC3)c2)c2cc[nH]c2c1=O | 0.004 | 5.3 | 6.3 | 7.6 | 0.59 | 
8 | C=CCCn1cc(-c2cc(C(=O)N3CCOCC3)c3ncn(CC)c3c2)c2cc[nH]c2c1=O |  |  | 3.4 | 6.8 |  | 
9 | C=CCCn1cc(-c2cc(C(=O)N3CCOCC3)c3ncn(C)c3c2)c2cc[nH]c2c1=O |  |  | 8.2 | 12 | 0.36 | 
10 | C=CCCn1cc(-c2cc(C(=O)N3CCOCC3)c3nc[nH]c3c2)c2cc[nH]c2c1=O |  |  | 2.3 | 4.4 |  | 
11 | C=CCCn1cc(-c2cc(C#N)cc(C(=O)N3CCOCC3)c2)c2cc[nH]c2c1=O |  |  | 1.8 | 5 |  | 
12 | C=CCCn1cc(-c2cc(C(=O)N3CCOCC3)cc3[nH]cnc23)c2cc[nH]c2c1=O |  |  | > 20 | > 20 |  | 
13 | C=CCCn1cc(-c2cc(C(=O)N3CCOCC3)c3c(c2)ncn3C)c2cc[nH]c2c1=O |  |  | 3.6 | 4.4 | 0.23 | 
14 | C=CCCn1cc(-c2cc(C(=O)N3CCOCC3)cc3c2ncn3C)c2cc[nH]c2c1=O |  |  | > 20 | > 20 | 1.2 | Kd [6]: 8.9 µM; Kd [7]: 0.005 µM; Activity (NCI-H23): Active; solubility kinetic [8]: 121 µM (≈ 52.2 µg/mL); Kd [9]: 1.2 µM; inhibition [10]: inactive
